# Data published in patent US12697316B2, “Combination therapy with acetyl-leucine and miglustat” (INTRABIO LTD., priority 2019, dated 2026).
# Assays:
# [1] = tested on: Npc1^−/− mice; experiment: CatWalk automated gait analysis in Npc1−/− mice; format: in vivo, mouse; conditions: Npc1−/− mice, gait analysis at 10 weeks of age
# Protocol: (§1) BALBc/NPC ^h and Sandhoff mice were bred as heterozygotes to generate affected mice (Npc1^−/−, Hexb^−/−) and controls (Npc^+/+, Hexb^+/+). The mice were housed under non-sterile conditions, with food and water available ad libitum. All experiments were conducted using protocols approved by the UK Home Office Animal Scientific Procedures Act, 1986.
# (§2) ADLL and enantiomers (ADLL: Molekula #73891210, ALL: Sigma Aldrich #441511, ADL: Sigma #A0876) were administered as dry admix in powdered mouse diet (PicoLab Rodent Diet 20/5053, LabDiet) at a dose of 0.1 g/kg/day for in vivo studies. Treatment groups for in vivo study consisted of at least 5 mice per group. In vitro studies were conducted with each compound dissolved in PBS to generate a 50 mM stock solution and diluted to a 1 mM working concentration in media (DMEM High Glucose-Gibco #10566016).
# (§3) Miglustat (Monsanto/Oxford GlycoSciences) was administered as a dry solid mixed with powdered chow (600 mg/kg/day) (see above) alone or in combination with ADLL.
# (§4) The weight and activity of each mouse was recorded weekly until reaching the humane endpoint (defined as a loss of 1 g body weight within 24 h). Gait analysis was performed using CatWalk 10.5 system (Noldus) according to the manufacturer's instructions and five runs were recorded per animal at each time point. The camera was set to 40 cm below the walkway, the walkway was approximately 4 cm wide, and detection settings set to camera gain 14.05 and green intensity 0.12. Motor function was measured using an accelerating NG Rota Rod for mice (Ugo Basile) starting from 1 rpm to 10 rpm, accelerating every 30 seconds by one rpm. Bar crossing experiments on Sandhoff animals were conducted to measure motor strength and coordination. The apparatus used was modified from published studies. Briefly, a metal bar (1.2 mm width and 26 cm in length) was suspended horizontally between two wooden supports 30 cm high over a cushioned surface and animals were allowed to grasp the center of the bar with forepaws only, the tail was released, and the clock was started. Latency to cross or fall from the bar was scored, with 120 sec, maximum, to termination of each trial. A score was given to each animal between +120 and −120. If crossing time was greater than 0, then score=120−CT; if falling time was greater than 0, the score=FT−120.
# [2] = tested on: Npc1^−/− mice; experiment: Survival / life span of Npc1−/− mice; format: in vivo, mouse; conditions: Npc1−/− mice; ADLL 0.1 g/kg/day, miglustat 600 mg/kg/day in chow; untreated Npc1−/− 87 days
# Protocol: as §1, §2, §3
# as §4, with “Briefly, a metal bar (1.2 mm width and 26 cm in length) was suspended horizontally between two wooden supports 30 cm high over a cushioned surface and animals were allowed to grasp the center of the bar with forepaws only, the tail was released, and the clock was started.” left out, “A score was given to each animal between +120 and −120. If crossing time was greater than 0, then score=120−CT; if falling time was greater than 0, the score=FT−120.” left out
# [3] = cited from earlier work
structure (smiles),measurement,setting,value
"CCCCN1C[C@H](O)[C@@H](O)[C@H](O)[C@H]1CO [miglustat, 1,5-(butylimino)-1,5-dideoxy-D-glucitol]",Stand mean,[1],significantly improved
same,hind Duty Cycle percentages,[1],showed no benefit
same,median survival,[2],117 days
same,adverse effects in the treatment subjects,"[3]; NPC first-line therapy, Champion et al. 2010",causes unwanted weight loss and gastrointestinal disturbances
same,weight loss,"[3]; known effect, through appetite suppression",known to cause weight loss through appetite suppression
